Test results from EP0379737A2, “Dihydropyridine derivatives for the treatment of angiospasm” (THE GREEN CROSS CORPORATION, priority 1988, dated 1990).

Columns and labels:
[1] = system: coronarism induced by laser cauterization of the coronary artery; test: Preventive effect of premedication with coronary vasodilators on coronarism induced by laser cauterization of the coronary artery; type: in vivo; conditions: anesthetized dogs, drugs given 10 minutes before cauterization (TNG 100 µg i.c. + 50 µg/min d.i.v.; NC 30 µg/kg/min d.i.v.; Compound 2 10 µg/kg i.v.); for Degree of Stenosis (%) (m ± SE) 10 mins. After: 10 minutes after cauterization; for Degree of Stenosis (%) (m ± SE) 30 mins. After: 30 minutes after cauterization; for Degree of Stenosis (%) (m ± SE) Immediately After: immediately after cauterization
Experimental: Preventive effect of premedication of coronary vasodilators on coronarism induced by laser cauterization of the coronary artery was examined using dogs.
Twenty-three anesthetized dogs premediated with a coronary vasodilator [8 dogs in non-treated group (control group); 7 in nitroglycerin-treated (TNG) group (100 µg i.c. (intracoronary) + 50 µg/min d.i.v. (intravenous drip injection)); 5 in Nicorandil (NC) group (30 µg/kg/min d.i.v); and 8 in Compound 2 (hereinafter described) group (10 µg/kg i.v.)] were used. A 9F guiding catheter was inserted from the right common carotid artery into the 28th circumflex ramus extending from the anterior descending branch of the right common carotid artery. After intravenous injection of 250 U of heparin and 20 mg of lidocaine, a probe having an argon laser heating tip having a diameter of 1.5 mm (manufactured by Trimedyne Corp.) was inserted through the catheter, and 10 minutes after the administration of drugs the coronary vessel was cauterized under a condition of 4.5 W × […] under photofluoroscopic observation. Before the cauterization, immediately after the cauterization, and 10 minutes and 30 minutes after the cauterization, changes of the coronary artery were angiographically observed. The degree of stenosis (%) was calculated from the measured inner diameter each of the cauterized site and the normal site. The degree of stenosis of a site undergoing retardation of angiography was taken as 99%.

[2] = Toxicity: LD50 determination in mice; conditions: mouse, in vivo; 10 to 11-week-old male mice, 3 to 5 mice per group; read-out: LD₅₀
Experimental: LD₅₀ was determined for Compound 2 as prepared in Reference Example 1 below using 10 to 11-week-old male mice (body weight: 14 to 16 g; 3 to 5 mice per group). AS a result, measured LD₅₀ values were more than 1,100 mg/kg at the lowest.

SMILES | Degree of Stenosis (%) (m ± SE) 10 mins. After [1] | Degree of Stenosis (%) (m ± SE) 30 mins. After [1] | Degree of Stenosis (%) (m ± SE) Immediately After [1] | LD50 [2] [mg/kg]
O=C(NCCO[N+](=O)[O-])c1cccnc1 [NC, Nicorandil] | 28 ± 9 | 29 ± 8 | 38 ± 11 | 
COC(=O)C1=C(C)NC(C)=C(C(=O)OCCc2ccc(N3CCN(C(c4ccccc4)c4ccccc4)CC3)cc2)C1c1cccc([N+](=O)[O-])c1 (stereo not shown) [Compound 2, 2-[p-(4-benzhydrylpiperazino)phenyl]ethyl methyl 2,6-dimethyl-4-(3-nitrophenyl)-1,4-dihydropyridine-3,5-dicarboxylate] | 9 ± 10 | 12 ± 12 | 12 ± 12 | > 1100
O=[N+]([O-])OCC(CO[N+](=O)[O-])O[N+](=O)[O-] [TNG, nitroglycerin] | 73 ± 17 | 66 ± 17 | 71 ± 4 | 
